Read-outs that look alike come from different tables or passages of the source.

IC50 data for 8 compounds are collected here from patent EP4775582A1, “MACROCYCLIC COMPOUND AND ANTIBODY-DRUG CONJUGATE THEREOF” (Genfleet Therapeutics (Shanghai) Inc., priority 2023, dated 2025).

One assay has as its target KRAS WT-cRAF (Homo sapiens, UniProt P01116+P62937). As to the kind of experiment: Assay for binding of KRAS to cRAF (HTRF, with Cyclophilin A), KRAS WT. On the technique in general: In TR-FRET formats the signal depends on donor and acceptor labels being close together.
The subject of another assay is NCI-H441 cells. As to the kind of experiment: 3D cell proliferation assay (CellTiter Glo-3D), NCI-H441. It is filed as cell-based, human. The following applies: NCI-H441 cells (KRAS G12V), 2% FBS, 5 days, read-out: H441 AP IC50. In a few lines: (§1)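 IC50 values come from four-parameter fits of inhibition rate against log compound concentration, using CellTiter-Glo luminescence read after 5 days' exposure. AsPC-1 and NCI-H441 were plated at 800 cells per well in low-serum (2% FBS) medium. Compound was dosed the day after seeding, with incubation at 37 °C, 5% CO2.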

The target in a further assay is KRAS G12V-cRAF (Homo sapiens, UniProt P01116+P62937, G12V). Description: Assay for binding of KRAS to cRAF (HTRF, with Cyclophilin A), KRAS G12V.
A further assay relates to AsPC-1 p-ERK. As to the kind of experiment: Cell p-ERK assay (HTRF), AsPC-1 cells. The format is cell-based, human. In a few lines:
(§2)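 Phospho-ERK (T202/Y204) was measured by HTRF in lysates after 3 h compound treatment at 37 °C. Cells had been plated the previous day at 20000 per well for NCI-H441 and 10000 per well for AsPC-1. Four-parameter dose-response fitting of % inhibition gave IC50 values.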

A further assay relates to H441 p-ERK. Description: Cell p-ERK assay (HTRF), NCI-H441 cells. It is filed as cell-based, human. The following applies: NCI-H441 cells (KRAS G12V), 3 h incubation. In a few lines:
as §2

In another assay the test system is AsPC-1 cells. Description: 3D cell proliferation assay (CellTiter Glo-3D), AsPC-1. It is filed as cell-based, human. In a few lines: as §1
Where [1] appears, read: read-out: KRAS WT-cRAF binding assay, GPPNP-KRAS WT, IC50 values.
Where [2] appears, read: read-out: KRAS G12V-cRAF binding assay, GPPNP-KRAS G12V, IC50 values.
[3] abbreviates: KRAS WT-cRAF binding assay(nM), GPPNP-KRAS WT, IC50 values.
Setting [4] is: KRAS G12V-cRAF binding assay(nM), GPPNP-KRAS G12V, IC50 values.
[5] abbreviates: Homo sapiens, ASPC1, AsPC-1 cells (KRAS G12D), 3 h incubation, read-out: AsPC-1 p-ERK IC50.
Setting [6] is: Homo sapiens, ASPC1, 120 h, AsPC-1 cells (KRAS G12D), 3D, 2% FBS, 5 days, read-out: AsPC-1 AP IC50.

Chain of KRAS G12V-cRAF (P01116 1-188 isoform P01116-2 G12V): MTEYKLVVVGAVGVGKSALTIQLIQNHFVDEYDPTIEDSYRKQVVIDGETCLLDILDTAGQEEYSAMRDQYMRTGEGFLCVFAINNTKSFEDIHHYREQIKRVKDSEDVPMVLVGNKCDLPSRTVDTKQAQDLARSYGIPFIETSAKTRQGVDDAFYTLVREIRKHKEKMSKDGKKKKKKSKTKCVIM
Chain of KRAS G12V-cRAF (P62937 whole entry): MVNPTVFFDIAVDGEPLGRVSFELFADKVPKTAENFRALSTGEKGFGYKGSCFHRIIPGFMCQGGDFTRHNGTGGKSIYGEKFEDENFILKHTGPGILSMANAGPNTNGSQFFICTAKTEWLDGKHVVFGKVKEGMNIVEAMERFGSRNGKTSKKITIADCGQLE
Chain of KRAS WT-cRAF (P01116 1-188 isoform P01116-2): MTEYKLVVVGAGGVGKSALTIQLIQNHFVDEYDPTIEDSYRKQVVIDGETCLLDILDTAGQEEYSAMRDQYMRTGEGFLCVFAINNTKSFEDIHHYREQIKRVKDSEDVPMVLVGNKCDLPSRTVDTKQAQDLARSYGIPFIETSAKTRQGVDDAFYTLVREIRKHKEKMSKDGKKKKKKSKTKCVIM
Chain of KRAS WT-cRAF (P62937 whole entry): as the sequence (P62937 whole entry) above
Experimental for KRAS G12V-cRAF: (§3) The plate was centrifuged at 1000 rpm for 1 min and then incubated in the thermostatic incubator at 20 °C for 30 min. […] The plate was centrifuged at 1000 rpm for 1 min and then incubated in the thermostatic incubator at 20 °C for 60 min. […] The working solution was added to the aforementioned assay plate at 5 µL/well. The plate was centrifuged at 1000 rpm for 1 min and then incubated in the thermostatic incubator at 20 °C for 60 min.
Experimental for KRAS WT-cRAF: as §3

Usually IC50 stands for the point on the concentration scale where inhibition reaches its midpoint. For `CCn1c(-c2cc(C#CCN3CCC(C#N)(CN)CC3)c[n+]([O-])c2[C@H](C)OC)c2c3cc(ccc31)-c1csc(n1)C[C@H](NC(=O)[C@H]1[C@@H]3COC[C@@H]31)C(=O)N1CCC[C@H](N1)C(=O)OCC(C)(C)C2` (atropisomer, axis not shown; (Ra)) [Compound Z64-1, (Ra)-3-((6^3S,4S,Z)-4-((1R,5S,6r)-3-oxabicyclo[3.1.0]hexane-6-carboxamido)-1^1-ethyl-10,10-dimethyl-5,7-dioxo-6^1,6^2,6^3,6^4,6^5,6^6-hexahydro-1^1H-8-oxa-2(4,2)-thiazola-1(5,3)-indola-6(1,3)-pyridazinacycloundecaphane-1^2-yl)-5-(3-(4-(aminomethyl)-4-cyanopiperidin-1-yl)prop-1-yn-1-yl)-2-((S)-1-methoxyethyl)pyridine 1-oxide], the IC50 was 31.2 nM on KRAS WT-cRAF (setting [1]); 5.1 nM in the assay on NCI-H441 cells; 4.1 nM on KRAS G12V-cRAF (setting [2]); 9.07 nM with AsPC-1 p-ERK (AsPC-1 cells (KRAS G12D), 3 h incubation, read-out: AsPC-1 p-ERK IC50); 5.07 nM in the assay with H441 p-ERK; 3.77 nM in the assay on AsPC-1 cells (AsPC-1 cells (KRAS G12D), 3D, 2% FBS, 5 days, read-out: AsPC-1 AP IC50).

Consider `COCCn1c(-c2cc(C#CCN3CCN(C(=O)CO)CC3)cnc2C(C)OC)c2c3cc(ccc31)-c1csc(n1)CC(NC(=O)C1C3COCC31)C(=O)N1CCCC(N1)C(=O)OCC(C)(C)C2` (atropisomer, axis not shown; (Ra)) [Compound Z31-1, (1R,5S,6r)-N-((6^3S,4S,Z)-(Ra)-1^2-(5-(3-(4-(2-hydroxyacetyl)piperazin-1-yl)prop-1-yn-1-yl)-2-((S)-1-methoxyethyl)pyridin-3-yl)-1^1-(methoxyethyl)-10,10-dimethyl-5,7-dioxo-6^1,6^2,6^3,6^4,6^5,6^6-hexahydro-1^1H-8-oxa-2(4,2)-thiazola-1(5,3)-indola-6(1,3)-pyridazinacycloundecaphane-4-yl)-3-oxabicyclo[3.1.0]hexane-6-carboxamide], for which the concentration for half-maximal inhibition (IC50) is 75 nM on KRAS WT-cRAF (setting [3]); 1.07 nM in the assay with NCI-H441 cells (Homo sapiens, 120 h); 14.7 nM on KRAS G12V-cRAF (setting [4]); 2.65 nM in the assay with AsPC-1 p-ERK (setting [5]); 0.92 nM in the assay with H441 p-ERK (Homo sapiens); 2.09 nM with AsPC-1 cells (setting [6]).

On to `CCn1c(-c2cc(C#CCN3CCS(=O)(=O)CC3)cnc2C(C)OC)c2c3cc(ccc31)-c1cc(N)cc(c1)CC(NC(=O)C1C(C)C1C)C(=O)N1CCCC(N1)C(=O)OCC(C)(C)C2` (atropisomer, axis not shown; (Ra)) [Compound Z22, (1r,2R,3S)-N-((6^3S,4S)-2^5-amino-(Ra)-1^2-(5-(3-(1,1-dioxidothiomorpholino)prop-1-yn-1-yl)-2-((S)-1-methoxyethyl)pyridin-3-yl)-1^1-ethyl-10,10-dimethyl-5,7-dioxo-6^1,6^2,6^3,6^4,6^5,6^6-hexahydro-1^1H-8-oxa-1(5,3)-indola-6(1,3)-pyridazina-2(1,3)-benzenacycloundecaphane-4-yl)-2,3-dimethylcyclopropane-1-carboxamide], for which the IC50 worked out at 47.5 nM on KRAS WT-cRAF (setting [3]); 2.31 nM with NCI-H441 cells (Homo sapiens, 120 h); 18.6 nM at KRAS G12V-cRAF (setting [4]); 1.54 nM in the assay with AsPC-1 p-ERK (setting [5]); 1.09 nM in the assay with H441 p-ERK (Homo sapiens); 8.37 nM in the assay on AsPC-1 cells (setting [6]).

In the case of `COCCn1c(-c2cc(C#CCN3CCC(C#N)(CO)CC3)cnc2C(C)OC)c2c3cc(ccc31)-c1csc(n1)CC(NC(=O)C1C(C)C1C)C(=O)N1CCCC(N1)C(=O)OCC(C)(C)C2` [Compound Z29, (1r,2R,3S)-N-((6^3S,4S,Z)-1^2-(5-(3-(4-cyano-4-(hydroxymethyl)piperidin-1-yl)prop-1-yn-1-yl)-2-((S)-1-methoxyethyl)pyridin-3-yl)-1^1-(methoxyethyl)-10,10-dimethyl-5,7-dioxo-6^1,6^2,6^3,6^4,6^5,6^6-hexahydro-1^1H-8-oxa-2(4,2)-thiazola-1(5,3)-indola-6(1,3)-pyridazinacycloundecaphane-4-yl)-2,3-dimethylcyclopropane-1-carboxamide], the IC50 turned out to be 37 nM at KRAS WT-cRAF (setting [3]); 0.21 nM in the assay with NCI-H441 cells (Homo sapiens, 120 h); 18.5 nM on KRAS G12V-cRAF (setting [4]); 0.07 nM in the assay with AsPC-1 p-ERK (setting [5]); 0.38 nM in the assay on H441 p-ERK (Homo sapiens); 0.09 nM in the assay with AsPC-1 cells (setting [6]).

As for `CCn1c(-c2cc(C#CCN3CCS(=O)(=O)CC3)cnc2C(C)OC)c2c3cc(ccc31)-c1csc(n1)CC(NC(=O)C1C(C)C1C(=O)NCCO)C(=O)N1CCCC(N1)C(=O)OCC(C)(C)C2` (atropisomer, axis not shown; (Ra)) [Compound Z13-1, (1R,2R,3S)-N^1-((6^3S,4S,Z)-(Ra)-1^2-(5-(3-(1,1-dioxidothiomorpholino)prop-1-yn-1-yl)-2-((S)-1-methoxyethyl)pyridin-3-yl)-1^1-ethyl-10,10-dimethyl-5,7-dioxo-6^1,6^2,6^3,6^4,6^5,6^6-hexahydro-1^1H-8-oxa-2(4,2)-thiazola-1(5,3)-indola-6(1,3)-pyridazinacycloundecaphane-4-yl)-N^2-(2-hydroxyethyl)-3-methylcyclopropane-1,2-dicarboxamide], the concentration for half-maximal inhibition (IC50) on KRAS WT-cRAF (setting [3]) was 21.8 nM; with NCI-H441 cells (Homo sapiens, 120 h), 3.36 nM; on KRAS G12V-cRAF (setting [4]) it was 5.2 nM; in the assay on AsPC-1 cells (setting [6]), 3.7 nM.

With `CCn1c(-c2cc(C#CCN3CCC(C#N)(CN)CC3)c[n+]([O-])c2[C@H](C)OC)c2c3cc(ccc31)-c1csc(n1)C[C@H](NC(=O)[C@H]1[C@H](C)[C@@H]1C)C(=O)N1CCC[C@H](N1)C(=O)OCC(C)(C)C2` (atropisomer, axis not shown; (Ra)) [Compound Z57, 5-(3-(4-(aminomethyl)-4-cyanopiperidin-1-yl)prop-1-yn-1-yl)-(Ra)-3-((6^3S,4S,Z)-4-((1r,2R,3S)-2,3-dimethylcyclopropane-1-carboxamido)-1^1-ethyl-10,10-dimethyl-5,7-dioxo-6^1,6^2,6^3,6^4,6^5,6^6-hexahydro-1^1H-8-oxa-2(4,2)-thiazola-1(5,3)-indola-6(1,3)-pyridazinacycloundecaphane-1^2-yl)-2-((S)-1-methoxyethyl)pyridine 1-oxide], the IC50 worked out at 38.8 nM on KRAS WT-cRAF (setting [1]); 1.34 nM in the assay on NCI-H441 cells (Homo sapiens, 120 h); 6.3 nM on KRAS G12V-cRAF (setting [2]); 0.81 nM in the assay on AsPC-1 p-ERK (setting [5]); 1.47 nM with H441 p-ERK (Homo sapiens); 0.47 nM with AsPC-1 cells (setting [6]).

As to `CCn1c(-c2cc(C#CCN3CCS(=O)(=O)CC3)cnc2C(C)O)c2c3cc(ccc31)-c1csc(n1)CC(NC(=O)C1C(C)C1C)C(=O)N1CCCC(N1)C(=O)OCC(C)(C)C2` (atropisomer, axis not shown; (Ra)) [Compound Z60, (1r,2R,3S)-N-((6^3S,4S,Z)-(Ra)-1^2-(5-(3-(1,1-dioxidothiomorpholino)prop-1-yn-1-yl)-2-((S)-1-hydroxyethyl)pyridin-3-yl)-1^1-ethyl-10,10-dimethyl-5,7-dioxo-6^1,6^2,6^3,6^4,6^5,6^6-hexahydro-1^1H-8-oxa-2(4,2)-thiazola-1(5,3)-indola-6(1,3)-pyridazinacycloundecaphane-4-yl)-2,3-dimethylcyclopropane-1-carboxamide], the 50% inhibitory concentration (IC50) on KRAS WT-cRAF (setting [3]) amounted to 15.3 nM; in the assay on NCI-H441 cells (Homo sapiens, 120 h) it was 0.16 nM; on KRAS G12V-cRAF (setting [4]), 15.2 nM; in the assay with AsPC-1 p-ERK (setting [5]), 0.28 nM; in the assay with H441 p-ERK (Homo sapiens) it was 0.15 nM; in the assay on AsPC-1 cells (setting [6]), 0.32 nM.

`CCn1c(-c2cc(C#CCN3CCS(=O)(=O)CC3)cnc2[C@H](C)OC)c2c3cc(ccc31)-c1csc(n1)[C@@H](N)[C@H](NC(=O)[C@H]1[C@H](C)[C@@H]1C)C(=O)N1CCC[C@H](N1)C(=O)OCC(C)(C)C2` (atropisomer, axis not shown; (Ra)) [Compound Z65, (1r,2R,3S)-N-((6^3S,3S,4S,Z)-3-amino-(Ra)-1^2-(5-(3-(1,1-dioxidothiomorpholino)prop-1-yn-1-yl)-2-((S)-1-methoxyethyl)pyridin-3-yl)-1^1-ethyl-10,10-dimethyl-5,7-dioxo-6^1,6^2,6^3,6^4,6^5,6^6-hexahydro-11H-8-oxa-2(4,2)-thiazola-1(5,3)-indola-6(1,3)-pyridazinacycloundecaphane-4-yl)-2,3-dimethylcyclopropane-1-carboxamide]: the IC50 was found to be 22.9 nM on KRAS WT-cRAF (setting [1]); 0.25 nM in the assay on NCI-H441 cells (Homo sapiens, 120 h); 5 nM on KRAS G12V-cRAF (setting [2]); 0.06 nM in the assay with AsPC-1 p-ERK (Homo sapiens, ASPC1, 3 h, read-out: AsPC-1 p-ERK IC50(nM)); 0.14 nM with H441 p-ERK (Homo sapiens); 0.15 nM in the assay on AsPC-1 cells (Homo sapiens, ASPC1, 120 h, read-out: AsPC-1 AP IC50(nM)).
